Experimental data: US11814367B2, “Inhibitors of glycogen synthase 1 (GYS1) and methods of use thereof” (Maze Therapeutics, Inc., priority 2021, dated 2023)

Legend:
[1] = biological target: hGYS2 enzyme (recombinant hGYS2/GN1 protein) (Homo sapiens (Human), UniProt P54840); test: GYS2 coupled enzyme assay (PK/LDH); assay type: biochemical; conditions: geometric mean of at least 2 assay runs on separate days, read-out: Avg_IC50
In short: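 IC50 came from Hill fits of duplicate percent inhibition, based on control-normalized slopes of 340 nm NADH decline read each minute for 10 min. The reaction held recombinant hGYS2/GN1 (200 nM) with glycogen, UDP-glucose, G6P and PEP, plus PK/LDH coupling at pH 7.5 and 2.5% DMSO.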

[2] = biological target: hGYS1 enzyme (recombinant hGYS1/GN1 protein) (Homo sapiens (Human), UniProt P13807); test: GYS1 coupled enzyme assay (PK/LDH); assay type: biochemical; conditions: hGYS1/GN1 50 nM, UDP-Glucose 0.8 mM, G6P 1 mM; geometric mean of at least 2 runs
Chain of hGYS1 enzyme (recombinant hGYS1/GN1 protein) (P13807 whole entry): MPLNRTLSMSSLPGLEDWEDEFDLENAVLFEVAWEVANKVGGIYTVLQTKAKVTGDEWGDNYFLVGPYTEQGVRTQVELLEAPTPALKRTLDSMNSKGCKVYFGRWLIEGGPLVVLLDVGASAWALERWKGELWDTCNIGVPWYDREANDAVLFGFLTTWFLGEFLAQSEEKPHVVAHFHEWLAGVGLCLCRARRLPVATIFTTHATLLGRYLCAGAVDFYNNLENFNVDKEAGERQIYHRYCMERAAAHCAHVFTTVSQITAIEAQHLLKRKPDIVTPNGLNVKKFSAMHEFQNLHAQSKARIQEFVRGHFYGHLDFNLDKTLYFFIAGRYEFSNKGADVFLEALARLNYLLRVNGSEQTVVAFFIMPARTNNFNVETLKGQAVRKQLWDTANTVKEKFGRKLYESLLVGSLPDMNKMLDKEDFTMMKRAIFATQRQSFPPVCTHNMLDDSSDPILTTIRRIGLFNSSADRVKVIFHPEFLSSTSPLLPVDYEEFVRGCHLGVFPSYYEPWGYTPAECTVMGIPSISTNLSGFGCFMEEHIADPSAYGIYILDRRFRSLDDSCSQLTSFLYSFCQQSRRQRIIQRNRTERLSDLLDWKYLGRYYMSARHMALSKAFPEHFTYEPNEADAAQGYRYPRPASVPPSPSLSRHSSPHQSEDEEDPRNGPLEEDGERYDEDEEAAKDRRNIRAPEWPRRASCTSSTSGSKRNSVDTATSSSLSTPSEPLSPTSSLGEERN
Chain of hGYS1 enzyme (recombinant hGYS1/GN1 protein) (P46976 whole entry partner): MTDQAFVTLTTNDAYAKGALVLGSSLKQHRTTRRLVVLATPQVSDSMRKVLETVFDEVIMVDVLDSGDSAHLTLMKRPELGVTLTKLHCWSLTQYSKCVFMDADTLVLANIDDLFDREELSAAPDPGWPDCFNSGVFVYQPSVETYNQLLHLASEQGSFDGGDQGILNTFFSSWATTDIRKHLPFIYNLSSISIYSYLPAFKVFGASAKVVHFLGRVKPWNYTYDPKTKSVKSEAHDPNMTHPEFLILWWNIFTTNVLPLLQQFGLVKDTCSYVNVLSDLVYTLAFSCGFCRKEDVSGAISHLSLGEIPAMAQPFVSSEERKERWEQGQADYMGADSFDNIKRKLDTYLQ

Chain of hGYS2 enzyme (recombinant hGYS2/GN1 protein) (P54840 whole entry): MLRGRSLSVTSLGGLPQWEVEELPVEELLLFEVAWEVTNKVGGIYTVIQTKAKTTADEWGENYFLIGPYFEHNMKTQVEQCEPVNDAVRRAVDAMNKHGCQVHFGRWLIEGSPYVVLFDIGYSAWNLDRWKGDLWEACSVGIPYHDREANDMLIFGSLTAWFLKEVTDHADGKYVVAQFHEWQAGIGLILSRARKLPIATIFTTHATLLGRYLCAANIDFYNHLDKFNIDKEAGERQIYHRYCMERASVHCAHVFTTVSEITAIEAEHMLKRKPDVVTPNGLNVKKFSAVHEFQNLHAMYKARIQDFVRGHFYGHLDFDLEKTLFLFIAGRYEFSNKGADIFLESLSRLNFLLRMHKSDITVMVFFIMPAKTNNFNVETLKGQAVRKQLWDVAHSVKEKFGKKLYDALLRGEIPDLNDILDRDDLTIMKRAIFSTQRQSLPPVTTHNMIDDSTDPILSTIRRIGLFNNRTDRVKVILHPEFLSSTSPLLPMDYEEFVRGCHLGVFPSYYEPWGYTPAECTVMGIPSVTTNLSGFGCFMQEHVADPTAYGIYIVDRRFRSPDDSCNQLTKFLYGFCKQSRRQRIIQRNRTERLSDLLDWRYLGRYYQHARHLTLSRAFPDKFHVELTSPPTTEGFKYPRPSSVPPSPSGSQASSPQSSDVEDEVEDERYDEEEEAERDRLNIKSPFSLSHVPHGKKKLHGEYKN
Chain of hGYS2 enzyme (recombinant hGYS2/GN1 protein) (P46976 whole entry partner): as the sequence (P46976 whole entry partner) above

IC50 [1] [nM]	IC50 [2] [nM]	Compound
> 100000	107	CC(C)c1ccc([C@@H](NC(=O)[C@@H]2CCCN2C(=O)CNC(=O)OC(C)(C)C)c2ccccc2)cc1 [Compound 210, tert-butyl N-{2-oxo-2-[(2S)-2-{[(S)-phenyl[4-(propan-2-yl)phenyl]methyl]carbamoyl}pyrrolidin-1-yl]ethyl}carbamate]
> 100000	282	CC(C)c1ccc([C@@H](NC(=O)[C@@H]2CCCN2C(=O)CCC(N)=O)c2ccccc2)cc1 [Compound 213, (2S)-1-(3-carbamoylpropanoyl)-N-[(S)-phenyl[4-(propan-2-yl)phenyl]methyl]pyrrolidine-2-carboxamide]
> 100000	853	CC(=O)N1[C@@H](C)CC[C@H]1C(=O)N[C@@H](c1ccccc1)c1ccc(C(C)C)cc1 [Compound 214, (2S,5S)-1-acetyl-5-methyl-N-[(S)-phenyl[4-(propan-2-yl)phenyl]methyl]pyrrolidine-2-carboxamide]
> 100000	247	CC(C)c1ccc([C@@H](NC(=O)[C@@H]2CCCN2C(=O)Cc2ncco2)c2ccccc2)cc1 [Compound 216, (2S)-1-[2-(1,3-oxazol-2-yl)acetyl]-N-[(S)-phenyl[4-(propan-2-yl)phenyl]methyl]pyrrolidine-2-carboxamide]
> 100000	96	CC(C)c1ccc([C@@H](NC(=O)[C@@H]2C[C@@H](F)CN2C(=O)CN2CCOC2=O)c2ccccc2)cc1 [Compound 217]
> 100000	83	Cc1nnnn1CC(=O)N1C[C@H](F)C[C@H]1C(=O)N[C@@H](c1ccccc1)c1ccc(C(C)C)cc1 [Compound 226, (2RS,4R)-4-fluoro-1-[2-(5-methyl-1H-1,2,3-tetrazol-1-yl)acetyl]-N-[(S)-phenyl[4-(propan-2-yl)phenyl]methyl]pyrrolidine-2-carboxamide]
> 100000	105	CC(C)c1ccc([C@@H](NC(=O)[C@@H]2C[C@@H](F)CN2C(=O)Cc2ccon2)c2ccccc2)cc1 [Compound 231, (2S,4R)-4-fluoro-1-[2-(1,2-oxazol-3-yl)acetyl]-N-[(S)-phenyl[4-(propan-2-yl)phenyl]methyl]pyrrolidine-2-carboxamide]
> 100000	25	Cc1n[nH]c(CC(=O)N2C[C@H](F)C[C@H]2C(=O)N[C@@H](c2ccccc2)c2ccc(C(C)C)cc2)n1 [Compound 232, (2S,4R)-4-fluoro-1-[2-(3-methyl-1H-1,2,4-triazol-5-yl)acetyl]-N-[(S)-phenyl[4-(propan-2-yl)phenyl]methyl]pyrrolidine-2-carboxamide]
> 100000	252	CC(C)c1ccc([C@@H](NC(=O)[C@@H]2C[C@@H](F)CN2C(=O)C(C)(C)c2ncn[nH]2)c2ccccc2)cc1 [Compound 233, (2S,4R)-4-fluoro-1-[2-methyl-2-(1H-1,2,4-triazol-5-yl)propanoyl]-N-[(S)-phenyl[4-(propan-2-yl)phenyl]methyl]pyrrolidine-2-carboxamide]
> 100000	54	CC(C)c1ccc([C@@H](NC(=O)[C@@H]2C[C@@H](F)CN2C(=O)Cc2nnc(CNC(=O)OC(C)(C)C)o2)c2ccccc2)cc1 [Compound 237, tert-butyl N-[(5-{2-[(2S,4R)-4-fluoro-2-{[(S)-phenyl[4-(propan-2-yl)phenyl]methyl]carbamoyl}pyrrolidin-1-yl]-2-oxoethyl}-1,3,4-oxadiazol-2-yl)methyl]carbamate]
> 100000	46	CC(C)c1ccc([C@@H](NC(=O)[C@@H]2C[C@@H](F)CN2C(=O)Cc2nnc(CN)o2)c2ccccc2)cc1 [Compound 238, (2S,4R)-1-{2-[5-(aminomethyl)-1,3,4-oxadiazol-2-yl]acetyl}-4-fluoro-N-[(S)-phenyl[4-(propan-2-yl)phenyl]methyl]pyrrolidine-2-carboxamide]
> 100000	1310	CC(=O)N1CCC[C@H]1C(=O)N[C@@H](c1ccccc1)c1ccc(C(C)C)cn1 [Compound 245, (2S)-1-acetyl-N-[(S)-phenyl[5-(propan-2-yl)pyridin-2-yl]methyl]pyrrolidine-2-carboxamide]
> 100000	109	CC(C)c1ccc([C@@H](NC(=O)[C@@H]2C[C@@H](F)CN2C(=O)Cn2cn[nH]c2=O)c2ccccc2)nc1 [Compound 288, (2S,4R)-4-fluoro-1-[2-(5-oxo-4,5-dihydro-1H-1,2,4-triazol-4-yl)acetyl]-N-[(S)-phenyl[5-(propan-2-yl)pyridin-2-yl]methyl]pyrrolidine-2-carboxamide]
> 100000	56	CC(C)c1ccc([C@@H](NC(=O)[C@@H]2C[C@@H](F)CN2C(=O)CCn2nc3ccccn3c2=O)c2ccccc2)nc1 [Compound 289, (2S,4R)-4-fluoro-1-(3-{3-oxo-2H,3H-[1,2,4]triazolo[4,3-a]pyridin-2-yl}propanoyl)-N-[(S)-phenyl[5-(propan-2-yl)pyridin-2-yl]methyl]pyrrolidine-2-carboxamide]
> 100000	56	CC(C)c1ccc([C@@H](NC(=O)[C@@H]2C[C@@H](F)CN2C(=O)CNC(=O)N2CC(F)(F)C2)c2ccccc2)nc1 [Compound 290, (2S,4R)-1-{2-[(3,3-difluoroazetidine-1-carbonyl]amino]acetyl}-4-fluoro-N-[(S)-phenyl[5-(propan-2-yl)pyridin-2-yl]methyl]pyrrolidine-2-carboxamide]
> 100000	53	CC(C)c1ccc([C@@H](NC(=O)[C@@H]2C[C@@H](F)CN2C(=O)CNC(=O)N2CC(C(F)(F)F)C2)c2ccccc2)nc1 [Compound 291, (2S,4R)-4-fluoro-N-[(S)-phenyl[5-(propan-2-yl)pyridin-2-yl]methyl]-1-(2-{[3-(trifluoromethyl)azetidin-1-carbonyl]amino}acetyl) pyrrolidine-2-carboxamide]
> 100000	111	CC(C)c1ccc([C@@H](NC(=O)[C@@H]2C[C@@H](F)CN2C(=O)Cn2cccn2)c2ccccc2)nc1 [Compound 292, (2S,4R)-4-fluoro-N-[(S)-phenyl[5-(propan-2-yl)pyridin-2-yl]methyl]-1-[2-(1H-pyrazol-1-yl)acetyl]pyrrolidine-2-carboxamide]
> 100000	142	CC(C)c1ccc([C@@H](NC(=O)[C@@H]2C[C@@H]3C[C@@H]3N2C(=O)Cc2cnn[nH]2)c2ccccc2)cc1F [Compound 324, (1S,3S,5S)-N-[(S)-[3-fluoro-4-(propan-2-yl)phenyl](phenyl)methyl]-2-[2-(1H-1,2,3-triazol-5-yl)acetyl]-2-azabicyclo[3.1.0]hexane-3-carboxamide]
> 100000	75	CC(C)c1ccc([C@@H](NC(=O)[C@@H]2[C@H]3C[C@H]3CN2C(=O)Cc2cnn[nH]2)c2ccccc2)cc1F [Compound 325, (1S,2S,5R)-N-[(S)-[3-fluoro-4-(propan-2-yl)phenyl](phenyl)methyl]-3-[2-(1H-1,2,3-triazol-5-yl)acetyl]-3-azabicyclo[3.1.0]hexane-2-carboxamide]
> 100000	16	CC(C)c1ccc([C@@H](NC(=O)[C@@H]2C[C@@H](F)CN2C(=O)Cc2nnn[nH]2)c2ccccc2)cc1F [Compound 328, (2S,4R)-4-fluoro-N-[(S)-[3-fluoro-4-(propan-2-yl)phenyl](phenyl)methyl]-1-[2-(1H-1,2,3,4-tetrazol-5-yl)acetyl]pyrrolidine-2-carboxamide]
> 100000	23	CC(C)c1ccc([C@@H](NC(=O)[C@@H]2C[C@@H](F)CN2C(=O)Cn2ccnn2)c2ccccc2)cc1F [Compound 331, (2S,4R)-4-fluoro-N-[(S)-[3-fluoro-4-(propan-2-yl)phenyl](phenyl)methyl]-1-[2-(1H-1,2,3-triazol-1-yl)acetyl]pyrrolidine-2-carboxamide]
> 100000	165	CC(C)c1ccc([C@@H](NC(=O)[C@@H]2C[C@@H](F)CN2C(=O)C2(c3nnco3)CC2)c2ccccc2)cc1F [Compound 333, (2S,4R)-4-fluoro-N-[(S)-[3-fluoro-4-(propan-2-yl)phenyl](phenyl)methyl]-1-[1-(1,3,4-oxadiazol-2-yl)cyclopropanecarbonyl] pyrrolidine-2-carboxamide]
> 100000	145	CC(C)c1ccc([C@@H](NC(=O)[C@@H]2C[C@@H](F)CN2C(=O)C(C)(C)c2nnco2)c2ccccc2)cc1F [Compound 334]
> 100000	27	CC(C)c1ccc([C@@H](NC(=O)[C@@H]2C[C@@H](F)CN2C(=O)Cc2ccnn2C)c2ccccc2)cc1F [Compound 337, (2S,4R)-4-fluoro-N-[(S)-[3-fluoro-4-(propan-2-yl)phenyl](phenyl)methyl]-1-[2-(1-methyl-1H-pyrazol-5-yl)acetyl]pyrrolidine-2-carboxamide]
> 100000	13	CC(C)c1ccc([C@@H](NC(=O)[C@@H]2C[C@@H](F)CN2C(=O)Cc2cnccn2)c2ccccc2)cc1F [Compound 344]
> 100000	32	CC(C)c1ccc([C@@H](NC(=O)[C@@H]2C[C@@H](F)CN2C(=O)Cc2cncnc2)c2ccccc2)cc1F [Compound 345, (2S,4R)-4-fluoro-N-[(S)-[3-fluoro-4-(propan-2-yl)phenyl](phenyl)methyl]-1-[2-(pyrimidin-5-yl)acetyl]pyrrolidine-2-carboxamide]
> 100000	24	CC(C)c1ccc([C@@H](NC(=O)[C@@H]2C[C@@H](F)CN2C(=O)Cc2ccncn2)c2ccccc2)cc1F [Compound 346, (2S,4R)-4-fluoro-N-[(S)-[3-fluoro-4-(propan-2-yl)phenyl](phenyl)methyl]-1-[2-(pyrimidin-4-yl)acetyl]pyrrolidine-2-carboxamide]
